Laboratory results from patent US6517864B1 (Pharmacia AB, priority 1998, dated 2003).

Experiments:
[1] = pharmacokinetics of oral tolterodine (background data); conditions: extensive metabolisers, EMs
[2] = partition coefficient between n-octanol and phosphate buffer; conditions: n-octanol / phosphate buffer at pH 7.32
[3] = In vitro permeation across synthetic membranes and dermatomed pig skin from solutions of tolterodine base (Franz diffusion cells, Example 2); assay type: in vitro ADME
Protocol: In vitro skin permeation results were obtained from studies on pig or human skin using Franz diffusion cells.
Full thickness pig and human skin (used in Example 1) or 765 μm skin (used in all other Examples) was used. The 765 μm skin was isolated by using a dermatome (Zimmer Electric Dermatome 8821, Zimmer Chirurgie).
The skin was mounted in the diffusion cells with an available diffusion area of 1.8 cm^2. The inner side of the skin was exposed to 12.1 ml receptor phase (0.05M phosphate buffer, pH 7.4) at 37±1° C. Samples were withdrawn periodically and measured by HPLC. Fluxes (>g/cm^2/h) were obtained by linear regression of data at steady state.
In vitro permeation studies across synthetic membranes and dermatomed pig skin from solutions of tolterodine base, imitating the reservoir type transdermal device. Enhancer was added to one of the solutions.
Membranes of the following types were used: CoTran 9702 (microporous polyethylene film) with 9% vinyl acetate (VA) and CoTran 9728 with 19% vinyl acetate. The solutions 3 and 4 were both applied on the surface of the two mentioned membranes while solution 5 only was applied on the surface of the CoTran 9702 membrane with 9% vinyl acetate. The membranes were placed on top of dermatomed pigskin. The inner sides of the pigskin were exposed to 12.1 ml receptor solution (0.05M phosphate pH 7.4 equilibrated to 37±1° C.).

[4] = poor metabolizer; cited from earlier work
solubility in water = conditions: room temperature
guinea pigs = test: Delayed contact hypersensitivity, Guinea Pig Maximization Test; assay type: in vivo; conditions: 1% intradermal induction, 25% topical induction and challenge, in sesame oil
Description: The delayed contact hypersensitivity test used was the Guinea Pig Maximization Test described by B. Magnusson and A. M. Kligman.
A 1% (w/w) test article concentration in sesame oil was used for the intradermal induction. A 25% (w/w) test article concentration in sesame oil was used for the topical induction and for the challenge application.

| Substance | half-life [1] | partition coefficient (Log P) [2] | flux ([3]; 1 or 3% HPC/ethanol solution, 9% VA CoTran membrane on dermatomed pigskin) | flux ([3]; 1 or 3% HPC/ethanol solution, 19% VA CoTran membrane on dermatomed pigskin) | flux ([3]; enhancer (methyl laurate:ethanol 1:9), 9% VA CoTran membrane on dermatomed pigskin) [μg/cm^2/h] | systemic clearance (CL) [4] | solubility in water (solubility in water) | delayed contact hypersensitivity reaction (guinea pigs) |
| --- | --- | --- | --- | --- | --- | --- | --- | --- |
| N,N-dilso-propyl-3′-(2-hydroxy-5-methylphenyl)-3-phenylpropanamine [Tolterodine] | about 2 hours | 1.83 | about 4 μg/cm^2/h | about 11 μg/cm^2/h | 9 | about 10 L/h | about 11 mg/ml |  |
| tolterodine L-tartrate |  |  |  |  |  |  |  | did not provoke a delayed contact hypersensitivity reaction |
